Experimental data from US10047089B2, “Dihydro-6-azaphenalene derivatives for the treatment of CNS, oncological diseases and related disorders” (Collaborative Medicinal Development, LLC, priority 2012, dated 2018).

Experiments:
[1] = target: T1, zinc induced Aß aggregates (Homo sapiens, UniProt P05067); assay: Bis-ANS fluorescence assay: reversal (disaggregation) of zinc induced Aß aggregates; format: biochemical; conditions: bisANS assay, zinc induced aggregates (FIG. 1, solid arrow)
T1 construct: Effect of bis-ANS on Aβ1-42 Solubility and Precipitation by Zn^2+
T1 sequence (P05067 672-713): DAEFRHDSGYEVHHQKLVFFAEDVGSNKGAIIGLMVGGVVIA
Text: (§1) Measurement of inhibition or reversal of protein aggregation may be carried out using such assays as Bis-ANS Fluorescence as described in, for example, W. T. Chen et al., J. Biol. Chem, 2011, 286 (11), 9646, or thioflavin T assay as disclosed herein. FIG. 1 depicts the measurement of aggregation prevention by added zinc and disaggregation of zinc induced aggregates by AC047 in a bisANS assay. In the presence of soluble Aß, zinc induces aggregation within milliseconds. This aggregation is detected by an increase in bisANS fluorescence. An excess of EDTA serves as a control by binding zinc and preventing aggregation. Both prevention of aggregation and disaggregation can be detected in the assay. […] The compounds described above were evaluated for the inhibition and reversal of protein aggregation as carried out using such assays as Bis-ANS Fluorescence as described in, for example, J. Biol. Chem, 2011, 286 (11), 9646. All compounds prepared above were measured to show EC50 between 0.000001 to 0.10 mM in both assays in the presence of Zinc (II). Aβ1-42 (25 μM) in Tris-HCl buffer (50 mM, pH7.4) was incubated at RT for 10 min in the presence or absence of ZnCl2 (25 μM) and bis-ANS (50 μM). […] A sample of the supernatant was then collected and compared by dot blot for peptide content to the sample of starting material to quantify how much original peptide had been lost due to precipitation.

[2] = target: T2, Aß (Homo sapiens, UniProt P05067); assay: Bis-ANS fluorescence assay: inhibition (prevention) of zinc induced Aß aggregation; format: biochemical; conditions: bisANS assay, soluble Aß plus added zinc (FIG. 1, dotted arrow)
T2 construct: Effect of bis-ANS on Aβ1-42 Solubility and Precipitation by Zn^2+
T2 sequence (P05067 672-713): as above
Text: as §1

elimination of zinc induced Aß aggregates (disaggregation) [1]: can eliminate zinc induced Aß aggregates | prevention of zinc induced aggregation [2]: can prevent zinc induced aggregation
Structure (SMILES): O=C1c2ccnc3c(O)ccc(c23)C(=O)N1Cc1ccccc1 [AC047, 5-benzyl-9-hydroxy-4H-benzo[de][2,6]naphthyridine-4,6(5H)-dione]
